Experimental data published in patent US10889554B2, “Excimer forming compounds” (THE GOVERNING COUNCIL OF THE UNIVERSITY OF TORONTO, priority 2013, dated 2021).

Tests used:
fixed cells = assay: Fixed cell imaging: monitoring decrease in proximal phosphorylation; assay type: cell-based; conditions: 22 nM, pre-treatment prior to cell fixation
Protocol: (3 h prior to fixation, media was removed and 22 nM of Staurosporine (BioShop, cat. STA001) solution in fresh media was added and incubated at 37° C., 5% CO2 for 3 h).

[1] = test system: MRC-9 and A549 cell lines; assay: Fixed cell imaging: monitoring increase in proximal phosphorylation; assay type: cell-based, human; conditions: pre-treatment before fixation
[2] = test system: proximally phosphorylated peptides; assay: Detection of proximally phosphorylated peptides in aqueous solution (384 well plate, emission 476 nm); assay type: binding
Protocol: In one example 40 μM of compound 1 pre-metallated with zinc(II) triflate (referred to as “Zn^2+ pre-metallation” in FIG. 13; procedure described in example) was titrated with 80-0.04 μM of pY and pYpY peptides in 50 mM HEPES pH 7.5, 5% DMSO. In another example, 40 μM of compound 1 was dissolved in 50 mM HEPES pH 7.5, 5% DMSO, which contained 40 μM of zinc(II) triflate (referred to as “in situ Zn^2+ metallation” in FIG. 13) and was titrated with 80-0.04 μM of pY and pYpY peptides. Fluorescence measurements were performed as described in Example 2.
(§1) Various conditions for the detection of proximally phosphorylated peptides and proteins in aqueous solution are shown in Table 1. For the screens, analytes (peptides) were dissolved in a specific buffer at various concentrations (normally 100 μM to 40 nM), and combined with 40 μM of compound 1 in complex with Zn^2+ (triflate salt) dissolved in the same buffer on a 384 well flat bottom black plate. The mixture was incubated for 20 minutes and fluorescence emission intensity at 476 nm (10-20 nm bandwidth) was measured using a Tecan M1000 microplate reader, upon excitation at 350 nm (5 nm bandwidth) at 400 Hz. The different conditions tested were assessed based on the ratios of signal intensity of positive to negative control analytes and signal intensity in general.
Peptides containing two phosphotyrosine residues, spaced by 2-5 alanine residues, were titrated into 40 μM solution of compound 1 in complex with Zn^2+ (triflate salt) (pH 7.5 50 mM HEPES, 10% propylene, 25 mM NaCl) from 80 μM to 40 nM (FIG. 16). Y-axis is Δ Fluorescence Intensity as defined by the formula in example 2.
Using the same methods as described in Example 6, Zn^2+ (triflate salt) complexes of compounds 1, compound 9, compound 15, compound 14 were tested in pH 7.5, 50 mM HEPES, 25 mM NaCl, 10% propylene glycol.
Using the same methods as described in Example 6, Zn^2+ (triflate salt) complexes of compound 1 and compound 12 were tested in pH 7.5, 50 mM HEPES, 5% DMSO.

[3] = test system: proximally phosphorylated proteins (α-casein, β-casein and D-α-casein); assay: In-solution detection of proteins; assay type: binding, Bos taurus; conditions: Zn^2+ (triflate salt) complexes; pH 7.5, 50 mM HEPES, 75 mM NaCl, 20% DMSO
From the text: Non-phosphorylated (BSA and lysozyme) and distally phosphorylated negative control proteins (ovalbumin) were used in detection methods for in-solution, on gel and on blot applications. Dephosphorylated α-casein (D-α-casein), β-casein and α-casein served as proximally phosphorylated positive controls (see Table 2). The phosphosites presented in Table 2 were obtained from the PhosphoSitePlus database or a UniProt database.
as §1, with “proteins” for “peptides”, “3. Proteins” for “1. For the screens, analytes (peptides)”, “a” for “a specific”, “general. Among the parameters assessed in this study and using these specific control proteins, the following conditions were selected for proteins studies: pH 5.5 50 mM NaOAc, 50 mM NaCl, 5% DMSO (see FIG. 27). […] Depending on the number of proximally di-phosphorylated sites, lower detection limits could be achieved by using lower concentration of a sensor.” for “general.”
Using same methods as described in Example 1.1c, Zn^2+ (triflate salt) complexes of compounds 1 (top left), compound 9 (top right), compound 15 (middle left), and compound 14 (middle right) were tested in pH 7.5, 50 mM HEPES, 75 mM NaCl, 20% DMSO (see FIG. 28).
Using same methods as described in Example 14, 40 and 20 μM of Zn^2+ (triflate salt) complexes of compound 1 (top) and compound 12 (bottom) (FIG. 29), were tested in pH 7.5, 50 mM HEPES, 5% DMSO.
Using same methods as described above, 60, 40, 20 and 10 μM of Zn^2+ (triflate salt) complexed with compound 12 (FIG. 30), were titrated with 80-0.04 μM of proteins in pH 7.5, 50 mM HEPES, 5% DMSO.

MRC-9 cells = assay: Fixed cell imaging; assay type: cell-based, human
Protocol: MRC-9 cells were plated on an 8-chamber tissue culture treated glass slide (BD Falcon; 40,000 cells/chamber) and cultured for two days at 37° C., 5% CO2. Media was removed and cells were incubated with 200 μL of 3.4% formaldehyde solution in 1×PBS for 10 min. Cells were washed 3×3 min with PBS and stored in PBS at 4° C. until staining. Cells were washed 3× with 50 mM HEPES and incubated in 40 μM solution of compound 1 in complex with Zn^2+ (triflate salt) dissolved in 50 mM HEPES, 75 mM NaCl, 10% DMSO for 1 h. Cells were rinsed 2× with 50 mM HEPES and mounted with a mounting solution and a cover slip.

β-casein = target: T1, β-casein (Bos taurus, UniProt P02666); assay: On-gel detection of proximally phosphorylated protein using GaCl3 complexes; assay type: binding
T1 construct: purchased Sigma Aldrich C6905-250MG
T1 sequence (P02666 16-224): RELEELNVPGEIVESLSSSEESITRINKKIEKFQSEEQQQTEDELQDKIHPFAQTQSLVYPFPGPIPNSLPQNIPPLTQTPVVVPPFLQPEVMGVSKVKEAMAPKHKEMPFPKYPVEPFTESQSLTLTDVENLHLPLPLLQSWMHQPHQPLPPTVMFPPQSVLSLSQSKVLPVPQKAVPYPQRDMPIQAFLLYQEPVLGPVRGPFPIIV
Protocol: (§2) Compound 8 was dissolved in 50 mM NaOAc buffer, pH 4.5, 50 mM NaCl, 10% DMSO and combined with 80, 160 or and 240 μM GaCl3 solutions. Each gel contained 4 lanes with equal amounts of BSA, ovalbumin (Ova), β-casein (β-cas) and lysozyme (Lyso) in each lane (left to right: 1, 0.5, 0.25 and 0.125 μg per protein per lane) (see FIG. 37). Gels were stained for 1 h with the sensor solution. Gels were first de-stained with 50 mM NaOAc buffer pH 4.5 for 2 h and then with 50 mM NaOAc buffer pH 4.0 20% acetonitrile for 40 h.
(§3) Compound 8 was dissolved in 100 mM NaOAc buffer, pH 4.5, 150 mM NaCl, 20% propylene glycol and combined with 10 and 15 μM GaCl3 solutions. Each gel contained 4 lanes with equal amounts of BSA, ovalbumin (Ova), β-casein (β-cas) and lysozyme (Lyso) in each lane (FIG. 40) left to right: 1, 0.5, 0.25 and 0.125 μg per protein per lane). Gels were stained for 1.5 h with the sensor solution. Destaining was performed for variable time (specified at the top) with 50 mM NaOAc, pH 4.0, 20% acetonitrile. Gels were rinsed with MiliQ water for 5 min prior to imaging. Images were acquired using ChemiDoc MP, using a 530 nm emission filter and UV trans excitation.
as §2, with “Compound 2” for “Compound 8”, “lane) (FIG. 42).” for “lane) (see FIG. 37).”, “h. […] However with the increased destaining time the intensity of β-casein band relative to other proteins was increasing, resulting in a 6.7-fold higher intensity over the distally phosphorylated protein ovalbumin. Lane containing 1 μg of each protein was analyzed (FIG. 43).” for “h.”
as §3, with “2” for “8”, “45)” for “40)”, “acetonitrile (see FIGS. 45 and 46).” for “acetonitrile.”

[4] = Titration of compound with GaCl3 at different pH (fluorescence at 376 nm); assay type: binding; conditions: 40 μM compound
Protocol: GaCl3 was titrated into 40 μM (constant) of compound 2 from 500 to 0.25 μM at pH 4.5 (50 mM NaOAc) and 7.5 (HEPES). Fluorescence intensity was measured at 376 and 476 nm at 350 nm excitation. […] At pH 4.5 saturation is observed at 10 μM of GaCl3.
40 μM of compound 3 was titrated with GaCl3 (250-0.12 μM) and the change in emission at 376 nm was recorded upon excitation at 350 nm as shown in FIG. 48.

[5] = 100 mM NaOAc pH 4.5, 150 mM NaCl, 20% propylene glycol, destain 50 mM NaOAc, pH 4.0, 20% acetonitrile

**Q.** For `CN[C@@H]1C[C@H]2O[C@@](C)([C@@H]1OC)n1c3ccccc3c3c4c(c5c6ccccc6n2c5c31)C(=O)NC4` [staurosporine], which “fluorescence intensity of compound 1-Zn^2+ complex compared to untreated control” value (fixed cells) is on record?
**A.** time-dependent decrease

**Q.** Which “fluorescent signal from compound 1-Zn^2+ in pre-treated cells” value [1] does the source give for IL-6: a JAK2 pathway-inducing agent here?
**A.** significantly increased

**Q.** Which “sensitivity for peptides in which the two phosphorylated tyrosine residues are more spaced out, vs compound 1” value ([2]; Zn^2+ (triflate salt) complexes, pH 7.5, 50 mM HEPES, 25 mM NaCl, 10% propylene glycol) does the source give for `c1cc2ccc3ccc(CCCCN4CCNCCNCCNCC4)c4ccc(c1)c2c34` [compound 9, 1-(4-(pyren-1-yl)butyl)-1,4,7,10-tetraazacyclododecane] here?
**A.** increased

**Q.** And the “efficiency at detecting the proximally phosphorylated proteins” value [3]?
**A.** comparable efficiency

**Q.** With `c1cc2ccc3ccc(CN4CCNCCNCCNCC4)c4ccc(c1)c2c34` [compound 1, 1-(Pyren-1-methyl)-1,4,7,10-tetraazacyclododecane] as the compound, how does the “signal with mono-phosphorylated or non-phosphorylated peptides” value ([2]; Zn^2+ triflate complex, 40 μM) read?
**A.** did not produce a significant signal

**Q.** And the “efficiency at detecting the proximally phosphorylated proteins” value [3]?
**A.** comparable efficiency

**Q.** What about the “intracellular fluorescence, metallated vs non-metallated” value (MRC-9 cells) of the same compound?
**A.** only compound 1-Zn^2+ complex, is capable of inducing intracellular fluorescence

**Q.** Which “selectivity for β-casein after 2 h destaining” value (β-casein; 80 μM compound, 1:1 GaCl3, stained 1 h) does the source give for `O=C(O)CN(CC(=O)O)c1ccccc1OCCOc1cc(NC(=O)CCCc2ccc3ccc4cccc5ccc2c3c45)ccc1N(CC(=O)O)CC(=O)O` [compound 2, 2,2′-((2-(2-(2-(bis(carboxymethyl)amino)-5-(4-(pyren-1-yl)butanamido)phenoxy)ethoxy)phenyl)azanediyl)diacetic acid] here?
**A.** did not result in the selective staining

**Q.** What about the “β-casein over distally phosphorylated ovalbumin” value (β-casein; 80 μM compound, 1:1 GaCl3, stained 1 h, 40 h destaining, 1 μg per protein) of the same compound?
**A.** 6.7 fold

**Q.** What about the “selectivity for β-casein with more than 1:1 equivalent of compound:GaCl3” value (β-casein; 50 mM NaOAc pH 4.5, 50 mM NaCl, 10% DMSO, 160 or 240 μM GaCl3) of the same compound?
**A.** did not result in good selectivity

**Q.** And the “selective staining for β-casein, no destaining” value (β-casein; 100 mM NaOAc pH 4.5, 150 mM NaCl, 20% propylene glycol, 1:1 and 1:1.5 compound:GaCl3, stained 1.5 h)?
**A.** did not result in selective staining

**Q.** What about the “staining of β-casein band following 16 h destain” value (β-casein; [5]) of the same compound?
**A.** most prominently stained band

**Q.** What about the “β-casein signal over distally phosphorylated ovalbumin following 16 h destain” value (β-casein; [5]) of the same compound?
**A.** 10 fold

**Q.** What about the “GaCl3 concentration at which saturation is observed” value ([4]; pH 4.5 (50 mM NaOAc)) of the same compound?
**A.** 10 µM

**Q.** And the “saturation at higher concentration of GaCl3” value ([4]; pH 7.5 (HEPES))?
**A.** saturation was not observed

**Q.** Which “concentrations at which Ga^3+-compound complex formation was observed” value ([4]; pH 5.5 and 4.5, 50 mM NaOAc) does the source give for `O=C(O)CN1CCN(CCCCc2ccc3ccc4cccc5ccc2c3c45)CCN(CC(=O)O)CCN(CC(=O)O)CC1` [compound 3, 2,2′,2″-(10-(4-(pyren-1-yl)butyl)-1,4,7,10-tetraazacyclododecane-1,4,7-triyl)triacetic acid] here?
**A.** single-digit
